Experimental data reported in PubChem BioAssay AID1963852 (Molecular Pharmacology Branch, DTP, NCI, 2024).

Tested on: 282377-053-R-J1-PDC complex spheroid viability
Assay: Anticancer human tumor 282377-053-R-J1-PDC patient-derived colon adenocarcinoma cell line growth inhibition [POLQ]
Details: for IC50: curve of first compound; for viability, T/C: stronger effect = lower value
How it was run: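 Complex spheroid viability model combining PDC tumour cells with endothelial (HUVEC) and MSC stromal cells. Novobiocin, ART-558 or RP6685 were tested singly and in combination with standard and investigational anticancer drugs. Each was titrated in half-log steps from near clinical Cmax, or from 10 microM where Cmax was unknown.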
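Further: spheroids exposed to compounds for seven days.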
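Wherever viability, T/C is given: 100% = DMSO vehicle control viability.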

## COc1cccc2c1C(=O)c1c(O)c3c(c(O)c1C2=O)CC(O)(C(=O)CO)CC3OC1CC(N)C(O)C(C)O1 (configuration not stated) + Nc1ccc(C#CCN(C(=O)Cc2ncc(C(F)(F)F)cc2C(F)(F)F)c2ccc(F)cc2)nn1
Second compound 0.0316 µM
  IC50: 1.96 µM
Second compound 0.1 µM
  IC50: 2.1 µM
Second compound 0.316 µM
  IC50: 2.02 µM
Second compound 1 µM
  IC50: 1.91 µM
Second compound 3.16 µM
  IC50: 1.83 µM
Second compound 10 µM
  IC50: 1.91 µM
Second compound 0.0316 µM, first compound 0.0316 µM
  viability, T/C: 99.2%
Second compound 0.0316 µM, first compound 0.1 µM
  viability, T/C: 98.9%
Second compound 0.0316 µM, first compound 0.316 µM
  viability, T/C: 123%
Second compound 0.0316 µM, first compound 1 µM
  viability, T/C: 94.6%
Second compound 0.0316 µM, first compound 3.16 µM
  viability, T/C: 17.8%
Second compound 0.0316 µM, first compound 10 µM
  viability, T/C: 3%
Second compound 0.1 µM, first compound 0.0316 µM
  viability, T/C: 107%
Second compound 0.1 µM, first compound 0.1 µM
  viability, T/C: 108%
Second compound 0.1 µM, first compound 0.316 µM
  viability, T/C: 110%
Second compound 0.1 µM, first compound 1 µM
  viability, T/C: 110%
Second compound 0.1 µM, first compound 3.16 µM
  viability, T/C: 17.6%
Second compound 0.1 µM, first compound 10 µM
  viability, T/C: 2.63%
Second compound 0.316 µM, first compound 0.0316 µM
  viability, T/C: 92.8%
Second compound 0.316 µM, first compound 0.1 µM
  viability, T/C: 108%
Second compound 0.316 µM, first compound 0.316 µM
  viability, T/C: 130%
Second compound 0.316 µM, first compound 1 µM
  viability, T/C: 103%
Second compound 0.316 µM, first compound 3.16 µM
  viability, T/C: 15.8%
Second compound 0.316 µM, first compound 10 µM
  viability, T/C: 3.07%
Second compound 1 µM, first compound 0.0316 µM
  viability, T/C: 94.2%
Second compound 1 µM, first compound 0.1 µM
  viability, T/C: 120%
Second compound 1 µM, first compound 0.316 µM
  viability, T/C: 128%
Second compound 1 µM, first compound 1 µM
  viability, T/C: 100%
Second compound 1 µM, first compound 3.16 µM
  viability, T/C: 10.8%
Second compound 1 µM, first compound 10 µM
  viability, T/C: 4.26%
Second compound 3.16 µM, first compound 0.0316 µM
  viability, T/C: 104%
Second compound 3.16 µM, first compound 0.1 µM
  viability, T/C: 108%
Second compound 3.16 µM, first compound 0.316 µM
  viability, T/C: 123%
Second compound 3.16 µM, first compound 1 µM
  viability, T/C: 96%
Second compound 3.16 µM, first compound 3.16 µM
  viability, T/C: 8.6%
Second compound 3.16 µM, first compound 10 µM
  viability, T/C: 3.58%
Second compound 10 µM, first compound 0.0316 µM
  viability, T/C: 119%
Second compound 10 µM, first compound 0.1 µM
  viability, T/C: 142%
Second compound 10 µM, first compound 0.316 µM
  viability, T/C: 127%
Second compound 10 µM, first compound 1 µM
  viability, T/C: 105%
Second compound 10 µM, first compound 3.16 µM
  viability, T/C: 6.84%
Second compound 10 µM, first compound 10 µM
  viability, T/C: 3.41%
